Experimental data from ChEMBL document CHEMBL4376804, “Review of Transient Receptor Potential Canonical (TRPC5) Channel Modulators and Diseases” (J Med Chem, 2019).

Legend:
Assay type in all cases: cell-based
[1] = biological target: T1, Short transient receptor potential channel 4 (Mus musculus, UniProt Q9QUQ5); assay: Inhibition of mouse TRPC4 beta expressed in HEK293 cells co-expressing mu-opioid receptor assessed as reduction in DAMGO-induced membrane potential by FMP-2 dye based assay
T1 sequence (Q9QUQ5 whole entry): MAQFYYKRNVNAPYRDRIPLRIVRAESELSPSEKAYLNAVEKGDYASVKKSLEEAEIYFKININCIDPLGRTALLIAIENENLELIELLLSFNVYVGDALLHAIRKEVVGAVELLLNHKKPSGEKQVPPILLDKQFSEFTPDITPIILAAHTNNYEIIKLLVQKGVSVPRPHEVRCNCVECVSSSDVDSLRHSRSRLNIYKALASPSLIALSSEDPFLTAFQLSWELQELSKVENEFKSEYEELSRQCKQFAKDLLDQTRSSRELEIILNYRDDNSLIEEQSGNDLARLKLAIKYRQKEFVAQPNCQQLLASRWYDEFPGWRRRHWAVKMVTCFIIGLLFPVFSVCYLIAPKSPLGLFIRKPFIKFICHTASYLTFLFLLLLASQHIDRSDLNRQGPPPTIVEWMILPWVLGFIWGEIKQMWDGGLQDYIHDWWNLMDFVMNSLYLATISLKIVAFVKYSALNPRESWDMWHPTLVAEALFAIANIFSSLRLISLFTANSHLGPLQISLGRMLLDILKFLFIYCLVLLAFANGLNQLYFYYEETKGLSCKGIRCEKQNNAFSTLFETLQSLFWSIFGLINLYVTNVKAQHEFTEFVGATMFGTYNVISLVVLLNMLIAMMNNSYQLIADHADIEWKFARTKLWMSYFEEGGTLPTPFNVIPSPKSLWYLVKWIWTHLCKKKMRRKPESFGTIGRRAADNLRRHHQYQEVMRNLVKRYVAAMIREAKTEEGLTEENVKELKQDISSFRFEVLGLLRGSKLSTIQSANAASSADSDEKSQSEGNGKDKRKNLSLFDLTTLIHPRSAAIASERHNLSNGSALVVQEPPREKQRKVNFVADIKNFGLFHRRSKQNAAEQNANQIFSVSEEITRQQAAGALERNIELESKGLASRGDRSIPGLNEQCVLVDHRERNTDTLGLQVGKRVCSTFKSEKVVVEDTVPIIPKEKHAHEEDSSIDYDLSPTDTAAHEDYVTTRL

[2] = biological target: T2, Short transient receptor potential channel 5 (Mus musculus, UniProt Q9QX29); assay: Inhibition of mouse TRPC5 expressed in HEK293 cells co-expressing mu-opioid receptor assessed as reduction in DAMGO-induced membrane potential by FMP-2 dye based assay
T2 sequence (Q9QX29 whole entry): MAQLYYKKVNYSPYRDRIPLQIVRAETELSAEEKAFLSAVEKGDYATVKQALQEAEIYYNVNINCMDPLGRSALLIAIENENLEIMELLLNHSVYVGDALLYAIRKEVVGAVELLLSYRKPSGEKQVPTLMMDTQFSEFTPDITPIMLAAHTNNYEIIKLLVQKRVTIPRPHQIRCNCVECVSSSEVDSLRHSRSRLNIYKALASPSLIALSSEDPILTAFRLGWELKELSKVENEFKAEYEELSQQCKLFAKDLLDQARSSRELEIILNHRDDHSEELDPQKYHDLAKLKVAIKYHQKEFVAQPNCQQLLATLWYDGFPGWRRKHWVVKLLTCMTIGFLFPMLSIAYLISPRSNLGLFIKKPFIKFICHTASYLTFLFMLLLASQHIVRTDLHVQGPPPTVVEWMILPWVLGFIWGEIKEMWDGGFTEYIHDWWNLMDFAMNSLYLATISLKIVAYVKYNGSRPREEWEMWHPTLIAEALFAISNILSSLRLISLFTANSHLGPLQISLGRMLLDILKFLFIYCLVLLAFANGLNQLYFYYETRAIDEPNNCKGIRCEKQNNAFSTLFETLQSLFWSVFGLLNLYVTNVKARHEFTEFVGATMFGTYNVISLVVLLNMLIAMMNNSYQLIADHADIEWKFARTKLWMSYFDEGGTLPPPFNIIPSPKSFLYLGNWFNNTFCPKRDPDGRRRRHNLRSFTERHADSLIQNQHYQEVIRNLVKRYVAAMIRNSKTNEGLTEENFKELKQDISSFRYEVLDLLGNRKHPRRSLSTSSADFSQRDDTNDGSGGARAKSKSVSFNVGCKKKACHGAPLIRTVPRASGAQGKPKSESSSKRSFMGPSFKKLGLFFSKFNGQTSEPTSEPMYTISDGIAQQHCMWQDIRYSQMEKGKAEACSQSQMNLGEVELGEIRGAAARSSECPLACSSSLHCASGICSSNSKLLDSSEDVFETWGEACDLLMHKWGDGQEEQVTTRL

[3] = biological target: T3, Short transient receptor potential channel 6 (Mus musculus, UniProt Q61143); assay: Inhibition of mouse TRPC6 expressed in HEK293 cells co-expressing M5 receptor assessed as reduction in carbachol-induced membrane potential by FMP-2 dye based assay
T3 sequence (Q61143 whole entry): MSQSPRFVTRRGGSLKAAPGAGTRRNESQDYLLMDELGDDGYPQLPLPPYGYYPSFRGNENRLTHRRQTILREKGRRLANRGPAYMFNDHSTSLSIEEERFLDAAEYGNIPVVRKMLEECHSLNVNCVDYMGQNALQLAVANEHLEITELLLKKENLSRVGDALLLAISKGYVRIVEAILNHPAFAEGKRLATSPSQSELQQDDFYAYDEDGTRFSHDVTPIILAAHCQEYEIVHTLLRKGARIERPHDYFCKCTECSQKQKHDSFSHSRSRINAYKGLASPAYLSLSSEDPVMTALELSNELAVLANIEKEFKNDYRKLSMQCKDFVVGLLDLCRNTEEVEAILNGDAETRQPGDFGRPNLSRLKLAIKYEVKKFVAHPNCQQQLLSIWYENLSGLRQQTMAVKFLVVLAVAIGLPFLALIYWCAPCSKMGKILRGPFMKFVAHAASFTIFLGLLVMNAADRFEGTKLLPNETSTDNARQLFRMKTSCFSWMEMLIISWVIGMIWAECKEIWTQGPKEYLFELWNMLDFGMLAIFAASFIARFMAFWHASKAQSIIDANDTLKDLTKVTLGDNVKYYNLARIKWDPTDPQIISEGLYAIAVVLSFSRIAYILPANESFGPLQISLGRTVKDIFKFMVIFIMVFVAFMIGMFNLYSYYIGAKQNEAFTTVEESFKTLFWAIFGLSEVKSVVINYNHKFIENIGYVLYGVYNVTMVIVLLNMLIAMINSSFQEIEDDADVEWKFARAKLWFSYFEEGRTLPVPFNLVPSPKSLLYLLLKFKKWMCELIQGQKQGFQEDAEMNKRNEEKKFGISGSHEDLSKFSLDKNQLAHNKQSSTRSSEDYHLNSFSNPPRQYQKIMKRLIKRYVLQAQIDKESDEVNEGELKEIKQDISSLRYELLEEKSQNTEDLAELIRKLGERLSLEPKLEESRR

SMILES | IC50 [1] [µM] | IC50 [2] [µM] | IC50 [3] [µM]
CC1CCCCN1c1nc2ccccc2[nH]1 (stereo not drawn) | 4.3 | 3.5 | > 100
c1ccc2[nH]c(N3CCCCC3)nc2c1 | 11 | 11.1 | > 100
c1ccc2[nH]c(N3CCCC3)nc2c1 | 5.5 | 8 | > 100
CC1CCN(c2nc3ccccc3[nH]2)CC1 | 5.2 | 6.6 | 63.8
c1ccc2[nH]c(NC34CC5CC(CC(C5)C3)C4)nc2c1 | 10.2 | 12.4 | > 100
CC1CCN(c2nc3cc(Cl)ccc3[nH]2)CC1 | 4.1 | 3.1 | 57.1
